Key:
NCI-H1975 = assay: Antiproliferative activity against human NCI-H1975 cells harboring EGFR L858R/T790M double mutant after 72 hrs by MTT assay; format: functional, cell-based; conditions: NCI-H1975, 72 h
HCC827 = assay: Antiproliferative activity against human HCC827 cells harboring EGFR E746-A750 del mutant after 72 hrs by MTT assay; format: functional, cell-based; conditions: HCC827, 72 h
A-431 = assay: Antiproliferative activity against human A431 cells harboring wild type EGFR after 72 hrs by MTT assay; format: functional, cell-based; conditions: A-431, 72 h
A549 [1] = assay: Antiproliferative activity against human A549 cells harboring wild type EGFR/K-ras mutant after 72 hrs by MTT assay; format: functional, cell-based; conditions: A549, 72 h
SW480 = assay: Antiproliferative activity against human SW480 cells harboring wild type EGFR after 72 hrs by MTT assay; format: functional, cell-based; conditions: SW480, 72 h
[2] = molecular target: Epidermal growth factor receptor (Homo sapiens, UniProt P00533, T790M); assay: Inhibition of EGFR T790M mutant (unknown origin) preincubated for 10 mins followed by TK substrate-botion addition measured after 1 hr by spectrophotometric method
[3] = molecular target: Epidermal growth factor receptor (Homo sapiens, UniProt P00533, L858R); assay: Inhibition of EGFR L858R mutant (unknown origin) using ULight-poly GT as substrate preincubated for 120 mins followed by substrate addition measured after 2 hrs by spectrophotometric method
[4] = molecular target: Epidermal growth factor receptor (Homo sapiens, UniProt P00533, L858R/T790M); assay: Inhibition of EGFR L858R/T790M double mutant (unknown origin) using ULight-poly GT as substrate preincubated for 30 mins followed by substrate addition measured after 1 hr by spectrophotometric method
A549 [5] = assay: Induction of apoptosis in human A549 cells assessed as early apoptotic cells at 15 uM after 48 hrs by Annexin V-FITC/propidium iodide satining based FACS analysis (reference value: 2.78%); format: functional
A549 [6] = assay: Cell cycle arrest in human A549 cells assessed as accumulation at S phase at 15 uM after 48 hrs by propidium iodide satining based FACS analysis (reference value: 34.45%); format: functional
A549 [7] = assay: Cell cycle arrest in human A549 cells assessed as accumulation at G0/G1 phase at 15 uM after 48 hrs by propidium iodide satining based FACS analysis (reference value: 48.87%); format: functional
A549 [8] = assay: Induction of apoptosis in human A549 cells assessed as necrotic cells at 15 uM after 48 hrs by Annexin V-FITC/propidium iodide satining based FACS analysis (reference value: 0.14%); format: functional
A549 [9] = assay: Induction of apoptosis in human A549 cells assessed as late apoptotic cells at 15 uM after 48 hrs by Annexin V-FITC/propidium iodide satining based FACS analysis (reference value: 1.21%); format: functional
A549 [10] = assay: Induction of apoptosis in human A549 cells assessed as viable cells at 15 uM after 48 hrs by Annexin V-FITC/propidium iodide satining based FACS analysis (reference value: 95.87%); format: functional; conditions: A549, 48 h, read-out: Activity

Epidermal growth factor receptor (Homo sapiens, UniProt P00533, L858R/T790M), sequence (P00533 25-1210 T790M/L858R limits assumed): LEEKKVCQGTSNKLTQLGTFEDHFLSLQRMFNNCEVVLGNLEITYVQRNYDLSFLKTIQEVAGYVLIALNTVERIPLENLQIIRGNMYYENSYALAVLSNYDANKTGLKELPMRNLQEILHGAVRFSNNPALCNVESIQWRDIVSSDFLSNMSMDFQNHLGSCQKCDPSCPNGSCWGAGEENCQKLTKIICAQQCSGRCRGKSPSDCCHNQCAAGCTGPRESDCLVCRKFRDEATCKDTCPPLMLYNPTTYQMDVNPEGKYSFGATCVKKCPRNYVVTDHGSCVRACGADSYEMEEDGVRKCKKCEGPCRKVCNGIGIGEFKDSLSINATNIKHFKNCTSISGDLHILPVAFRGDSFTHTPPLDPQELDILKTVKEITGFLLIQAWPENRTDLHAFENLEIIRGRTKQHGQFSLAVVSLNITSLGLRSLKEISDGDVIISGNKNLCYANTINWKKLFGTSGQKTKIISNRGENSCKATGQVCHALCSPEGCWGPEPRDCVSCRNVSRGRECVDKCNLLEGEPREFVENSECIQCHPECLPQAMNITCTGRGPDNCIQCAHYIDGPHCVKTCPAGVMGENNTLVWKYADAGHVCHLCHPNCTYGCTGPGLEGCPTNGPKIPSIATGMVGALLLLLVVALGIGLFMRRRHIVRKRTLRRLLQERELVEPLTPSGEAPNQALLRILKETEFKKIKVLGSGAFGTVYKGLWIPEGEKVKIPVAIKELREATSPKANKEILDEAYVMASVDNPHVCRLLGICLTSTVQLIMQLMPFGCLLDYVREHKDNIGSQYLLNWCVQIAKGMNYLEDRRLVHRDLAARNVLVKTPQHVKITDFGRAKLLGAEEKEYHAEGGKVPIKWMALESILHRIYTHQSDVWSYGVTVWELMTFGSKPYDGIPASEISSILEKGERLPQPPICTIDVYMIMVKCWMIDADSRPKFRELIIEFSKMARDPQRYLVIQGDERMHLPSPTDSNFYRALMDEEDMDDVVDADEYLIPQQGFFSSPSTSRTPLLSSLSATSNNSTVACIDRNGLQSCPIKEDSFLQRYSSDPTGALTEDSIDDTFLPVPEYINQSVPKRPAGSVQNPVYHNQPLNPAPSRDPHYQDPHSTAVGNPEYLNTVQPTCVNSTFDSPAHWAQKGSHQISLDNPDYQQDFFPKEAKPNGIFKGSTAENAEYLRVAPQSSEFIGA
Epidermal growth factor receptor (Homo sapiens, UniProt P00533, T790M), sequence (P00533 25-1210 T790M limits assumed): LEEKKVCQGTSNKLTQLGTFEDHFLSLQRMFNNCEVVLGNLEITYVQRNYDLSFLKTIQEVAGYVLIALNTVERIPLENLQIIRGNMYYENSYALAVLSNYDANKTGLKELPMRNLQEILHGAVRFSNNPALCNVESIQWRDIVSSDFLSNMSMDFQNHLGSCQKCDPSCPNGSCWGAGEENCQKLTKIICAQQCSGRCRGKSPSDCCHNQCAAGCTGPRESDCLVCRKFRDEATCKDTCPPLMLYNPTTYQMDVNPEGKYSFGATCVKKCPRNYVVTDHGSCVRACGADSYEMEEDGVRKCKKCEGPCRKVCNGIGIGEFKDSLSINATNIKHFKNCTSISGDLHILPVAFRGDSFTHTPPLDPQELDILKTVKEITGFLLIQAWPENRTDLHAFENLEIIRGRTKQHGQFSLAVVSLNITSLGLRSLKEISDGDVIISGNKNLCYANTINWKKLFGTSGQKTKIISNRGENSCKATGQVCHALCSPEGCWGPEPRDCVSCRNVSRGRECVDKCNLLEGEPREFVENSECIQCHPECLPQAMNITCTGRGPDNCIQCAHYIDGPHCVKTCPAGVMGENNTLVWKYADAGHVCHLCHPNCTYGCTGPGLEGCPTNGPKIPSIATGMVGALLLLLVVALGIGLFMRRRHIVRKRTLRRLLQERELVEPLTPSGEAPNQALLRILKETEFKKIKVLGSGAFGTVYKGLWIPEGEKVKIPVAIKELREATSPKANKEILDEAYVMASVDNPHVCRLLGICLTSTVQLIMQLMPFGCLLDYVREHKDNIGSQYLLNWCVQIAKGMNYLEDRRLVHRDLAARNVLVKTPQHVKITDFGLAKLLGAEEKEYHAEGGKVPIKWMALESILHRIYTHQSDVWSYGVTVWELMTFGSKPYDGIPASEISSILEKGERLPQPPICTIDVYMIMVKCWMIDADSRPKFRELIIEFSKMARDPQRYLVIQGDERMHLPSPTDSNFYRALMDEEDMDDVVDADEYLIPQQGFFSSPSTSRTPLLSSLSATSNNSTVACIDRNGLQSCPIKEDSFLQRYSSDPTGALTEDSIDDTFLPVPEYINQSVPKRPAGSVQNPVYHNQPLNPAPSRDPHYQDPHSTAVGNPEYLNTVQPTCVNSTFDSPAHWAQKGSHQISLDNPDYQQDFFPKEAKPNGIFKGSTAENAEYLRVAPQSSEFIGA
Epidermal growth factor receptor (Homo sapiens, UniProt P00533, L858R), sequence (P00533 25-1210 L858R limits assumed): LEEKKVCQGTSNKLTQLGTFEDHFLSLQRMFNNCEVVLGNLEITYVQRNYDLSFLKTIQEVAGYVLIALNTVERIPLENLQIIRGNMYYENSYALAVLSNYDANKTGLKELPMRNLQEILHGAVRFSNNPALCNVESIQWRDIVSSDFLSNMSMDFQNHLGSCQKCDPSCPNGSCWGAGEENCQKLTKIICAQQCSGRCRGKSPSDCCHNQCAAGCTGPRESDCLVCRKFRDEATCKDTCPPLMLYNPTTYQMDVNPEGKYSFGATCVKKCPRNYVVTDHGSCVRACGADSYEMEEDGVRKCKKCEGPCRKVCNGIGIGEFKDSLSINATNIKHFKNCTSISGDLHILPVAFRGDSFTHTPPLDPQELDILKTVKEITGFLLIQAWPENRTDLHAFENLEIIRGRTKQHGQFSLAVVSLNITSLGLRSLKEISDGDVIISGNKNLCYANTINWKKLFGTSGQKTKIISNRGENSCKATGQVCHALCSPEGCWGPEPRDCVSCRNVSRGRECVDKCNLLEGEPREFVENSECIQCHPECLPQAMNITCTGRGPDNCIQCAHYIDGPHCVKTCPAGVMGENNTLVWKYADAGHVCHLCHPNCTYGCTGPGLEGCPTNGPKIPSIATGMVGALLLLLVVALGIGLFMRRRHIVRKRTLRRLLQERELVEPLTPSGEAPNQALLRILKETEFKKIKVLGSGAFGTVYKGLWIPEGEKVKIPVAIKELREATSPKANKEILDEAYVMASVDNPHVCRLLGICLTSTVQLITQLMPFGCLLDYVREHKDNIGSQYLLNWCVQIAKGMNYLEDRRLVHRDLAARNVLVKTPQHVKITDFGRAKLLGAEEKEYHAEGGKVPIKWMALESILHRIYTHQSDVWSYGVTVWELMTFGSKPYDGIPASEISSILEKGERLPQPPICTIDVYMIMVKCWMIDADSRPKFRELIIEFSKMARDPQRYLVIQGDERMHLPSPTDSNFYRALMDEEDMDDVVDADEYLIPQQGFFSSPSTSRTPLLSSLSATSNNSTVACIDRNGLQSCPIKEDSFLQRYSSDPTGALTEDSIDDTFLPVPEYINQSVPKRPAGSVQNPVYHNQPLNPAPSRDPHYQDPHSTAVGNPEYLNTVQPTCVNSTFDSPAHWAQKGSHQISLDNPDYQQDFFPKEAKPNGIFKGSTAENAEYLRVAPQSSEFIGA

| Compound | IC50 (NCI-H1975) | IC50 (HCC827) | IC50 (A-431) | IC50 (A549 [1]) | IC50 (SW480) | IC50 [2] | IC50 [3] | IC50 [4] | Activity (A549 [5]) | Activity (A549 [6]) | Activity (A549 [7]) | Activity (A549 [8]) | Activity (A549 [9]) | viability at 15 µM (A549 [10]) |
| --- | --- | --- | --- | --- | --- | --- | --- | --- | --- | --- | --- | --- | --- | --- |
| C/C=C/c1ccc(Nc2ncnc3cc(OCCCN4CCOCC4)c(OCCCN4CCOCC4)cc23)cc1 | 5.53 µM | 290 nM | 1.35 µM | 8.83 µM | 6.08 µM | > 1000 nM | 235 nM | > 2000 nM | – | – | – | – | – | – |
| Fc1cccc(COc2ccc(Nc3ncnc4cc(OCCN5CCOCC5)c(OCCN5CCOCC5)cc34)cc2Cl)c1 | 12.2 µM | 320 nM | 3.62 µM | 5.81 µM | 8.82 µM | – | – | – | – | – | – | – | – | – |
| C/C=C/c1ccc(Nc2ncnc3cc(OCCN4CCOCC4)c(OCCN4CCOCC4)cc23)cc1 | 89.3 µM | 1860 nM | 10.1 µM | 14.1 µM | 29.2 µM | – | – | – | – | – | – | – | – | – |
| Fc1ccc(Nc2ncnc3cc(OCCN4CCOCC4)c(OCCN4CCOCC4)cc23)cc1Cl | 20.4 µM | 50 nM | 10.4 µM | 7.91 µM | 16.6 µM | – | – | – | – | – | – | – | – | – |
| CS(=O)(=O)CCNCc1ccc(-c2ccc3ncnc(Nc4ccc(OCc5cccc(F)c5)c(Cl)c4)c3c2)o1 [LAPATINIB] | 12.7 µM | 600 nM | 4.8 µM | 14.9 µM | 12.6 µM | – | – | – | 4.56% | 23.89% | 67.5% | 1.5% | 6.27% | 87.7% |

Further compounds by falling IC50 (NCI-H1975), results first:

| IC50 (NCI-H1975) | IC50 (HCC827) | IC50 (A-431) | IC50 (A549 [1]) | IC50 (SW480) | IC50 [2] | IC50 [3] | IC50 [4] | Compound | Activity (A549 [5]) | Activity (A549 [6]) | Activity (A549 [7]) | Activity (A549 [8]) | Activity (A549 [9]) | viability at 15 µM (A549 [10]) |
| --- | --- | --- | --- | --- | --- | --- | --- | --- | --- | --- | --- | --- | --- | --- |
| 23.1 µM | 50 nM | 5.41 µM | 11.5 µM | 20.8 µM | – | – | – | C#Cc1cccc(Nc2ncnc3cc(OCCN4CCOCC4)c(OCCN4CCOCC4)cc23)c1 | – | – | – | – | – | – |
| 4.45 µM | 7.8 nM | 2.01 µM | 3.03 µM | 3.54 µM | – | – | – | Fc1ccc(Nc2ncnc3cc(OCCCN4CCOCC4)c(OCCCN4CCOCC4)cc23)cc1Cl | – | – | – | – | – | – |
| 3.1 µM | 6.6 nM | 1.56 µM | 3.97 µM | 5.39 µM | – | – | – | C#Cc1cccc(Nc2ncnc3cc(OCCCN4CCOCC4)c(OCCCN4CCOCC4)cc23)c1 | – | – | – | – | – | – |
